# Values quoted from earlier work as cited in US20050181044A1, “Compositions and methods for timed release of water-soluble nutritional supplements, green coffee extract” (priority 2004, published 2005).
# Details: absorbed by the gastrointestinal tract, after first-pass metabolism in the liver
structure (smiles),measurement,value
N[C@H]1C(O)O[C@H](CO)[C@@H](O)[C@@H]1O (stereo partly shown) [Glucosamine],bioavailability,26%
